Where two headings read alike, the source gives them in different places.
Experiments:
[1] = biological target: T1, human erythrocyte Glx I (Homo sapiens, UniProt Q04760); assay: Inhibition of human erythrocyte glyoxalase I; type: biochemical
T1 construct: Human erythrocyte Glx I was purified to homogeneity from out-dated human blood; from tissue; host or cells: human erythrocytes (out-dated human blood)
T1 sequence (Q04760 2-184 limits assumed): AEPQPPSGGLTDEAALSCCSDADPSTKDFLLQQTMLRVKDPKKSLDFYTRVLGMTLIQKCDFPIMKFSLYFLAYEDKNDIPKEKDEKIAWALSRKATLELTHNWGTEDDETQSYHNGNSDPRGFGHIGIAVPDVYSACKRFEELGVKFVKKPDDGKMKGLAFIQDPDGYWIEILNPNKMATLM

[2] = test system: Human Leukemia 60 (HL60) cells; assay: Growth inhibition and kill of human leukemia 60 cells; type: cell-based; conditions: for LC50 (concentration for 50% cell kill) / TGI (concentration for total cell growth inhibition) / IC50: 72 hr. incubation; for IC50: read-out: GI (concentration for 50% cell growth inhibition)
Procedure: The observation that compounds 2 and 6(c) inhibit tumor cell growth, but were not strongly cytotoxic to tumor cells at the concentrations tested, prompted the synthesis of diethyl esters of compounds 6(a), 6(b), and 6(c). These derivatives were then tested with human leukemia cells (HL60 cells) grown in RPMI/fetal calf serum medium at 37° C.
^c Concentration for 50% cell kill.

[3] = test system: normal human VA-2 fibroblasts; assay: Toxicity to normal human fibroblasts; type: cell-based
[4] = test system: CN(O)C(=O)SC[C@H](NC(=O)CC[C@H](N)C(=O)O)C(=O)NCC(=O)O; assay: purified protein, by the assay type; conditions: other: as substrate, HEPES buffer (100 mM, pH 7.4), 25° C.
Procedure: (§1) The standard errors for Vm and Km were obtained by analysis of the initial rate data using the HYPER program of Cleland.
(§2) ^a HEPES buffer (100 mM, pH 7.4), 25° C.
(§3) ^b Listed values are relative to Vm for SD-lactoylglutathione.
(§4) ^c Inhibition constants obtained from using the enediol analogs as

[5] = of substituent R; cited from earlier work
[6] = test system: Melanoma (UACC-62); assay: NCI tumor cell growth inhibition, melanoma UACC-62; conditions: for IC50: UACC-62, 48 h, read-out: GI (concentration for 50% cell growth inhibition); for LC50 (concentration for 50% cell kill) / TGI (concentration for total cell growth inhibition): 48 hrs. incubation
Text: (§5) ^a Concentration for 50% cell growth inhibition versus nodrug
(§6) ^b Concentration for total cell growth inhibition versus nodrug

[7] = test system: Renal Cancer (ACHN); assay: NCI tumor cell growth inhibition, renal cancer ACHN; conditions: for LC50 (concentration for 50% cell kill) / TGI (concentration for total cell growth inhibition): 48 hrs. incubation; for IC50: 48 h, read-out: GI (concentration for 50% cell growth inhibition)
Text: as §5, §6

[8] = test system: CNS Cancer (SNB-75); assay: NCI tumor cell growth inhibition, CNS cancer SNB-75; conditions: for inhibition of cell growth: CNS human cancer cells; for IC50: SNB-75, 48 h, read-out: GI (concentration for 50% cell growth inhibition); for LC50 (concentration for 50% cell kill) / TGI (concentration for total cell growth inhibition): SNB-75, 48 hrs. incubation
Text: as §5, §6

[9] = test system: Colon Cancer (KMZOLZ); assay: NCI tumor cell growth inhibition, colon cancer KMZOLZ; conditions: for IC50: 48 h, read-out: GI (concentration for 50% cell growth inhibition); for LC50 (concentration for 50% cell kill) / TGI (concentration for total cell growth inhibition): KMZOLZ, 48 hrs. incubation
Text: as §5, §6

[10] = test system: Ovarian Cancer (SK-OV-3); assay: NCI tumor cell growth inhibition, ovarian cancer SK-OV-3; conditions: for IC50: SK-OV-3, 48 h, read-out: GI (concentration for 50% cell growth inhibition); for LC50 (concentration for 50% cell kill) / TGI (concentration for total cell growth inhibition): 48 hrs. incubation
Text: as §5, §6

[11] = biological target: bovine liver glyoxalase II (Bos taurus, UniProt Q3B7M2); assay: Substrate and inhibition studies with bovine liver glyoxalase II; conditions: for Vm (rel.): relative to Vm for S-D-lactoylglutathione, HEPES buffer (100 mM, pH 7.4), 25° C.
Procedure: as §1, §2, §3, §4

[12] = test system: Non-Small Cell Lung Cancer (HOP-18); assay: NCI tumor cell growth inhibition, non-small cell lung cancer HOP-18; conditions: for LC50 (concentration for 50% cell kill) / TGI (concentration for total cell growth inhibition): 48 hrs. incubation; for IC50: HOP-18, 48 h, read-out: GI (concentration for 50% cell growth inhibition)
Text: as §5, §6

[13] = biological target: T2, yeast Glx I (Saccharomyces cerevisiae, UniProt P50107); assay: Inhibition of yeast glyoxalase I; type: biochemical
T2 construct: purchased Sigma Chem. Co
T2 sequence (P50107 1-326): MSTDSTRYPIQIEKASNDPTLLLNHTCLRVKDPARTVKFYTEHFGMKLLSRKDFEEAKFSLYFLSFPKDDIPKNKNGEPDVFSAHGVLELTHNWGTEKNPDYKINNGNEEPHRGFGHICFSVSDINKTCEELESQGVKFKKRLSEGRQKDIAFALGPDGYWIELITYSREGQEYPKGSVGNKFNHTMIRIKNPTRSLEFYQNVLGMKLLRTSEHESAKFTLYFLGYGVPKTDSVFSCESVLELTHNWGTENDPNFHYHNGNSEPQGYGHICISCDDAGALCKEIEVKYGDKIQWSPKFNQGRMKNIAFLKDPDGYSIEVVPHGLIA

[14] = biological target: T3, glyoxalase I (Saccharomyces cerevisiae, UniProt P50107); conditions: concentration of 50% inhibition of glyoxalase I; c = No inhibitory activity was detected; read-out: I50; cited from earlier work
T3 sequence (P50107 1-326): T2 sequence (P50107 1-326)

[15] = test system: L1210 leukemia; conditions: concentration for 50% kill of the cell culture; cited from earlier work
[16] = test system: KB cells; conditions: concentration for 50% kill of the cell culture; cited from earlier work
[17] = biological target: T2, yeast Glx I; conditions: Hamilton et al. 1992; cited from earlier work
[18] = Homo sapiens, UACC-62, read-out: inhibition of cell growth
[19] = Homo sapiens, read-out: inhibition of cell growth
[20] = Homo sapiens, SNB-75, read-out: inhibition of cell growth
[21] = Homo sapiens, SK-OV-3, read-out: inhibition of cell growth
[22] = Homo sapiens, HOP-18, read-out: cell growth inhibition

CCOC(=O)CNC(=O)[C@H](CSC(=O)N(O)c1ccccc1)NC(=O)CC[C@H](N)C(=O)OCC [6a(Et)2]
Ki ([1]; Table 7, read-out: Ki (competitive inhibition constants with human erythrocyte glyoxalase I)): > 1000 µM | cell killing ([2]; HL60, 250 to 300 μM): about 100% | LC50 (concentration for 50% cell kill) ([2]; HL60): 200 µM | TGI (concentration for total cell growth inhibition) ([2]; HL60): 126 µM | IC50 ([2]; HL60): 63 µM | toxicity versus corresponding unethylated species ([2]; HL60 cells, RPMI/fetal calf serum medium, 37° C.): more toxic | inhibition of cell growth ([3]; VA-2 fibroblasts, 250 to 300 μM): 50-80%

bovine liver glyoxalase II (Bos taurus)
Km [4]: 478 µM

N[C@@H](CCC(=O)N[C@@H](CSCc1ccc(Br)cc1)C(=O)NCC(=O)O)C(=O)O [S-p-Bromobenzyl glutathione, reference compound]
LC50 ([2]; HL60 cells, text b533): 50 µM | LC50 ([3]; fibroblasts, text b533): 50 µM

N[C@@H](CCC(=O)N[C@@H](CSC(=O)N(O)c1ccc(Br)cc1)C(=O)NCC(=O)O)C(=O)O [Compound 6c, S-(N-Hydroxy-N-4-bromophenylcarbamoyl) glutathione]
LC50 (concentration for 50% cell kill) ([2]; HL60): ~ 300 μM | TGI (concentration for total cell growth inhibition) ([2]; HL60): 63 µM | IC50 ([2]; Homo sapiens, HL-60, HL60): 20 µM | π (Hansch hydrophobicity constant) [5]: 3.25 | IC50 ([6]; Homo sapiens): 126 µM | inhibition at 10 µM [6, 18]: ~20% | inhibition at 100 µM [6, 18]: 50% | inhibition of cell growth ([6]; UACC-62, 10^-6 M and lower concentrations): minimal inhibition | LC50 (concentration for 50% cell kill) ([6]; UACC-62): > 1000 µM | TGI (concentration for total cell growth inhibition) ([6]; UACC-62): > 1000 µM | LC50 (concentration for 50% cell kill) [7]: > 1000 µM | TGI (concentration for total cell growth inhibition) [7]: ~ 200 μM | IC50 ([7]; Homo sapiens): 25 µM | inhibition at 10 µM [7, 19]: 30% | inhibition at 100 µM [7, 19]: ~95% | inhibition of cell growth ([8]; 10^-6 M and 10^-5 M): about 20% | IC50 ([8]; Homo sapiens): 63 µM | inhibition at 100 µM [8, 20]: 60% | LC50 (concentration for 50% cell kill) [8]: > 1000 µM | TGI (concentration for total cell growth inhibition) [8]: ~ 1000 μM | IC50 ([9]; Homo sapiens): 40 µM | inhibition at 100 µM [9, 19]: 80% | inhibition of cell growth ([9]; KMZOL2, 10^-6 and 10^-5): about 10% | LC50 (concentration for 50% cell kill) [9]: > 1000 µM | TGI (concentration for total cell growth inhibition) [9]: ~ 320 μM | IC50 ([10]; Homo sapiens): 32 µM | inhibition at 1 µM [10, 21]: ~40% | inhibition at 100 µM [10, 21]: > 80% | inhibition of cell growth ([10]; SK-OV-3, 10^-5): about 30% | LC50 (concentration for 50% cell kill) ([10]; SK-OV-3): > 1000 µM | TGI (concentration for total cell growth inhibition) ([10]; SK-OV-3): ~ 250 μM | Ki [11]: 1.2 ± 0.4 µM | Vm (rel.) [11]: (2.1 ± 0.4) × 10^-5 | cell growth inhibition ([12]; HOP-18, 10^-6 to 10^-5 M): about 15% | LC50 (concentration for 50% cell kill) ([12]; HOP-18): > 1000 µM | TGI (concentration for total cell growth inhibition) ([12]; HOP-18): ~ 250 μM | IC50 ([12]; Homo sapiens): 40 µM | inhibition at 100 µM [12, 22]: ~80%

C[C@@H](O)C(=O)SC[C@H](NC(=O)CC[C@H](N)C(=O)O)C(=O)NCC(=O)O [S-D-lactoylglutathione, reference compound]
Ki [13]: 2230 µM | IC50 [14]: 77 µM | LD50 (L1210) [15]: 0.08 mM | LD50 (KB) [16]: 0.07 mM

CN(O)C(=O)SC[C@H](NC(=O)CC[C@H](N)C(=O)O)C(=O)NCC(=O)O [Compound 2, S-(N-Hydroxy N-Methyl Carbamoyl) Glutathione]
binding energy difference versus deoxy analog 2(a) [13]: about 2.6 Kcal/mole | binds more tightly to active site of Glx I than deoxy analog 2(a) [13]: 80 fold | binds more tightly to yeast Glx I than S-D-lactoylglutathione [13]: over 30 fold | Ki ([13]; read-out: Ki yeast Glx I): 68 µM | Ki ([1]; Phosphate buffer (50 mM, pH 7), 25° C., read-out: Ki Erythrocytes): 1.95 ± 0.21 µM | IC50 [14]: 9 µM | LD50 (L1210) [15]: > 0.20 mM | LD50 (KB) [16]: 0.11 mM | higher affinity of the enzyme versus glycyl-ethyl ester 2(Et) [17]: 10 fold | π (Hansch hydrophobicity constant) [5]: 0.5 | IC50 ([6]; Homo sapiens): > 1000 µM | inhibition at 1000 µM [6, 18]: 30% | effect on cell growth ([6]; UACC-62, 10^-4 or lower): ineffective | LC50 (concentration for 50% cell kill) ([6]; UACC-62): > 1000 µM | TGI (concentration for total cell growth inhibition) ([6]; UACC-62): > 1000 µM | LC50 (concentration for 50% cell kill) [7]: > 1000 µM | TGI (concentration for total cell growth inhibition) [7]: > 1000 µM | IC50 ([7]; Homo sapiens): > 1000 µM | inhibition at 1000 µM [7, 19]: ~40% | effect on cell growth ([7]; concentrations lower than 10^-3 M): no significant effect | inhibition of cell growth ([8]; 10^-4 M or lower): less than 10% | IC50 ([8]; Homo sapiens): 630 µM | inhibition at 1000 µM [8, 20]: 60% | LC50 (concentration for 50% cell kill) [8]: > 1000 µM | TGI (concentration for total cell growth inhibition) [8]: > 1000 µM | IC50 ([9]; Homo sapiens): > 1000 µM | inhibition of cell growth ([9]; KMZOL2, "At this concentration" (printed after 10^-4 and below)): < 30% | effect on cell growth ([9]; KMZOL2, concentrations of 10^-4 and below): no significant effect | LC50 (concentration for 50% cell kill) [9]: > 1000 µM | TGI (concentration for total cell growth inhibition) [9]: > 1000 µM | IC50 ([10]; Homo sapiens): 316 µM | inhibition at 100 µM [10, 21]: 20% | inhibition at 1000 µM [10, 21]: > 90% | LC50 (concentration for 50% cell kill) ([10]; SK-OV-3): > 1000 µM | TGI (concentration for total cell growth inhibition) ([10]; SK-OV-3): ~ 1000 μM | Ki [11]: 426 ± 77 µM | Vm (rel.) [11]: (1.7 ± 0.1) × 10^-5 | LC50 (concentration for 50% cell kill) ([12]; HOP-18): > 1000 µM | TGI (concentration for total cell growth inhibition) ([12]; HOP-18): > 1000 µM | IC50 ([12]; Homo sapiens): 630 µM | inhibition at 1000 µM [12, 22]: > 65%

— patent US5616563A, “Glutathione N-hydroxycarbamoyl thioesters and method of inhibiting neoplastic growth” (University of Maryland Baltimore Campus, priority 1994, dated 1997)
